Measurements taken from US20260069643A1, “COMBINATIONS COMPRISING VITAMIN B2 AND LACTOBACILLUS RHAMNOSUS” (DSM IP Assets B.V., priority 2022, published 2026).

What was measured:
Akkermansiaceae = assay: Long-term SHIME fermentation (colon model), 16S rRNA gene sequencing and flow cytometry: abundance of Akkermansiaceae; settings: FIG. 2, mucus of the transverse colon, end of three-week treatment vs end of control period (n=3), probiotic 1*10^10 CFU/reactor, vitamin B2 10 mg/day, significance p<0.05
Source text: (§1) The typical reactor setup of the SHIME®, representing the gastrointestinal tract of the adult human, was described by Molly et al. (1993) Applied Microbiology and Biotechnology 39(2):254-258. Inoculum preparation, retention time, pH, temperature settings and reactor feed composition were previously described by Possemiers et al. (2004) FEMS Microbiol Ecol. 49(3):495-507. Compared to the typical setup of the SHIME, the long-term SHIME experiment used for this example included some adaptations. In one reactor, at first, the conditions of the stomach were simulated, before being changed by the computer to conditions simulating the small intestine. […]
(§2) Samples for quantitative 16S-targeted Illumina sequencing were collected 3×/week during the last week of the control and treatment period. […] The obtained high-resolution proportional phylogenetic information (i.e., proportional abundances (%)) was combined with an accurate quantification of total bacterial cells via flow cytometry to obtain quantitative data at phylum, family, and species level. […] Samples were analyzed on a BD Facsverse (BDBiosciences, Erembodegem, Belgium) using the high-flowrate setting and bacteria were separated from medium debris and signal noise by applying a threshold level of 200 on the SYTO channel. […]

Akkermansia muciniphila = assay: Long-term SHIME fermentation (colon model), 16S rRNA gene sequencing and flow cytometry: abundance of Akkermansia muciniphila; settings: FIG. 3, mucus of the transverse colon, end of three-week treatment vs end of control period (n=3), probiotic 1*10^10 CFU/reactor, vitamin B2 10 mg/day, significance p<0.05
Source text: as §1, §2

Verrucomicrobia = assay: Long-term SHIME fermentation (colon model), 16S rRNA gene sequencing and flow cytometry: abundance of Verrucomicrobia; settings: FIG. 1, mucus of the transverse colon, end of three-week treatment vs end of control period (n=3), probiotic 1*10^10 CFU/reactor, vitamin B2 10 mg/day, significance p<0.05
Source text: as §1, §2

Lactobacillus rhamnosus GG
did not significantly change: abundance of Akkermansiaceae compared to the control (Akkermansiaceae) | abundance of Akkermansia muciniphila compared to the control (Akkermansia muciniphila) | abundance of Verrucomicrobia compared to the control (Verrucomicrobia)
